Data from patent US12233047B2, “Pharmaceutical combination and use thereof” (ASCENTAGE PHARMA (SUZHOU) CO., LTD., priority 2019, dated 2025).

Target: T1, FLT3 (wild type) (Homo sapiens, UniProt P36888)
T1 construct: host or cells: T7 phage in E. coli (BL21-derived) or HEK-293
T1 sequence (P36888 27-993): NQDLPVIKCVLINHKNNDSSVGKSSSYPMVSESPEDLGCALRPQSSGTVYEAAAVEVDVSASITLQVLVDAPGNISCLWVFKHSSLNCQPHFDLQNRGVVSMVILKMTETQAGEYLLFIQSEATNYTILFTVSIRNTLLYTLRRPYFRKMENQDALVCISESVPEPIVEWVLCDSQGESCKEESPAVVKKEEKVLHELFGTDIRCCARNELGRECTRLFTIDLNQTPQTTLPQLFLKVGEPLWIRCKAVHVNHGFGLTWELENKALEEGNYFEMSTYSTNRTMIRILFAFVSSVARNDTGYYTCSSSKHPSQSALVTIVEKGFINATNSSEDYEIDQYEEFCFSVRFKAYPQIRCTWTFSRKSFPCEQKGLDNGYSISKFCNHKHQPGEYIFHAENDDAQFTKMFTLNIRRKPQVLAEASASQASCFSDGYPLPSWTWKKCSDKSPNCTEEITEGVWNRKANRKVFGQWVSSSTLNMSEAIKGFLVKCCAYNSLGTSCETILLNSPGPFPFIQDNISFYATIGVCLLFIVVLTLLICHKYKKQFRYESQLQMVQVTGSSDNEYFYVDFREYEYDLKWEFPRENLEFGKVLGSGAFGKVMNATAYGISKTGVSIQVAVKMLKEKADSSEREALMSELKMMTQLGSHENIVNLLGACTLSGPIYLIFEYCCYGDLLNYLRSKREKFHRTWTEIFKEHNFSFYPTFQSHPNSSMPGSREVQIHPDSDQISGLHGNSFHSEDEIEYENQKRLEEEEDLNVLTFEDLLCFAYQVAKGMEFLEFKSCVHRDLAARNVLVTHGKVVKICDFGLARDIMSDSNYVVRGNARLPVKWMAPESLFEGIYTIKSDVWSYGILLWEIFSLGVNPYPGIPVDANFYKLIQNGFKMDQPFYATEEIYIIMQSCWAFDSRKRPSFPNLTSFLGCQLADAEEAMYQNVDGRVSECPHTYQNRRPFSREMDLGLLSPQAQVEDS
Assay: KINOMEscan kinase binding assay, FLT3 (wild type)
Settings: lower % Ctrl = stronger binding
Protocol: The kinase assay was conducted using KINOMEscan™.
Kinase-tagged T7 phage strains were grown in parallel in 24-well blocks in an E. coli host derived from the BL21 strain. E. coli were grown to log-phase and infected with T7 phage from a frozen stock (multiplicity of infection=0.4) and incubated with shaking at 32° C. until lysis (90-150 minutes). The lysates were centrifuged (6,000×g) and filtered (0.2 μm) to remove cell debris. The remaining kinases were produced in HEK-293 cells and subsequently tagged with DNA for qPCR detection. Streptavidin-coated magnetic beads were treated with biotinylated small molecule ligands for 30 minutes at room temperature to generate affinity resins for kinase assays. The liganded beads were blocked with excess biotin and washed with blocking buffer (SeaBlock (Pierce), 1% BSA, 0.05% Tween 20, 1 mM DTT) to remove unbound ligand and to reduce non-specific phage binding. Binding reactions were assembled by combining kinases, liganded affinity beads, and test compound (Compound 23) in 1× binding buffer (20% SeaBlock, 0.17×PBS, 0.05% Tween 20, 6 mM DTT). Test compound were prepared as 40× stocks in 100% DMSO and directly diluted into the assay. All reactions were performed in polypropylene 384-well plates in a final volume of 0.04 ml. […] The kinase concentration in the eluates was measured by qPCR. […]

Cc1ccc(C(=O)Nc2ccc(CN3CCN(C)CC3)c(C(F)(F)F)c2)cc1C#Cc1cnc2[nH]ncc2c1 [Compound 23, 3-(2-(1H-pyrazolo[3,4-b]pyridin-5-yl)ethynyl)-4-methyl-N-(4-((4-methylpiperazin-1-yl)methyl)-3-(trifluoromethyl)phenyl)benzamide]
% Ctrl@10 nM (10 nM): 2.4 % Ctrl | % Ctrl@100 nM (100 nM): 0.75 % Ctrl
